In US20210338767A1, “METHODS OF SELECTING TREATMENT FOR CXCR4-ASSOCIATED CANCER” (BioLineRx Ltd., priority 2018, published 2021):
Positions of bridges follow the written chain, without caps; N, C: chain ends. Non-standard residues stand in square brackets, D forms with d. *: point of attachment. Benzoyl(4-F) = O=C(c1ccc(F)cc1)*; Cit = NC(=O)NCCC[C@H](N)C(=O)O

Legend:
AML blasts = test: Pharmacodynamic assessment: mobilization and differentiation of AML blasts (peripheral blood, bone marrow); type: in vivo, human
Protocol: (§1) FIGS. 3A-D show BL-8040 Mediated CXCR4 Receptor Occupancy and Induce Mobilization and Differentiation of AML Blasts. (A) Fold change in level of occupied CXCR4 receptor prior and post treatment with low (0.5, 0.75 and 1 mg/kg) and high (1.25, 1.5 and 2 mg/kg) BL-8040 dose levels. (B) Fold change in AML blast counts pre and post BL-8040 and BL-8040+HiDAC treatments in responders and non-responders. (C) Fold change in the level of AML blasts in the BM following BL-8040 treatment (D) Change in levels of BM Granulocytes following 2 days of BL-8040 treatment.

CXCR4 receptor = target: T1, CXCR4 receptor (Homo sapiens, UniProt P61073); test: Pharmacodynamic assessment: CXCR4 receptor occupancy prior and post BL-8040 treatment; type: in vivo
T1 construct: Fold change in level of occupied CXCR4 receptor prior and post treatment with low (0.5, 0.75 and 1 mg/kg) and high; endogenous in cells
T1 sequence (P61073 whole entry): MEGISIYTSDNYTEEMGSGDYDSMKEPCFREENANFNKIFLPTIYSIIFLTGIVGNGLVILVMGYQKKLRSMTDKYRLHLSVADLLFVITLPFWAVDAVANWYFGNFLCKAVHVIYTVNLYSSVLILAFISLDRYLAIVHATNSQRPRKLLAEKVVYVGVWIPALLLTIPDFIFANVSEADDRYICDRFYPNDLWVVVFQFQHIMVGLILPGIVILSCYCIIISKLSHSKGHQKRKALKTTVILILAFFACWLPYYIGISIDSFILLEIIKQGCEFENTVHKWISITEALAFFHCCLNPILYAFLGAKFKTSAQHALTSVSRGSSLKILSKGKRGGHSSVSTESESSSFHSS
Protocol: as §1
Receptor occupancy is typically assessed using two monoclonal antibodies (mAbs) binding to two different epitopes of the CXCR4 antigen. […] It will be appreciated that receptor occupancy can also be determined by using an antibody which binds peptide-free CXCR4 prior to and post contacting with the peptide (e.g., 12G5, supra).
According to a specific embodiment, the receptor occupancy is determined as follows: Percent or number of CXCR4 expressing cells (e.g., using 12G5 Ab) post drug (e.g., SEQ ID NO: 1) treatment out of percent or number of CXCR4 expressing cells (e.g., using 12G5 Ab) prior to drug (e.g., SEQ ID NO: 1) treatment *100, such a calculation provides receptor occupancy per cell.

[1] = tested on: relapsed or refractory AML; test: Phase 2a study of BL-8040 combined with high dose Ara-C (HiDAC) in relapsed/refractory AML: efficacy; type: in vivo, human
From the text: Subjects were accrued in a conventional 3+3 design.
Follow-up period started after completion of Ara-C chemotherapy and continued for up to 6 weeks after initiation of salvage chemotherapy with Ara-C, i.e., up to Day 44. Subjects participating in the expansion phase were followed for up to 5 years after completion of the follow-up period. Subjects were contacted by telephone at approximately 3-month intervals (±1 month) after the end of the follow-up period to determine AML status and survival.

[2] = tested on: malignant cells of hematopoietic origin including AML; details: cited from earlier work
[3] = responding patients following BL-8040 treatment vs baseline, compared to non-responders
[4] = all patients at all BL-8040 dose levels (N=42)
[5] = responding subjects at the 1.5 mg/kg dose (9/23 with CR/CRi)
[6] = responding subjects within the 1.5 mg/kg dose group
[7] = subjects receiving 1.5 mg/kg (N=23)

4F-benzoyl-Arg-Arg-Nal-Cys-Tyr-Cit-Lys-DLys-Pro-Tyr-Arg-Cit-Cys-Arg-NH2 ({Benzoyl(4-F)}-RR[Nal]CY[Cit]K[dK]PYR[Cit]CR-NH2; disulfide 4-13 (inferred)) [BL-8040]
levels of granulocytes in BM (AML blasts; responders vs non-responders relative to screening, following BL-8040 treatment): Statistically significant increased levels of granulocytes
leukemic blasts in BM (AML blasts; [3]): decreased numbers of leukemic blasts in BM
mobilized leukemic blasts in peripheral blood (AML blasts; [3]): statistically significant increased numbers of mobilized leukemic blasts
CXCR4 receptor occupancy (CXCR4 receptor; high BL-8040 dose levels (1.25, 1.5 and 2 mg/kg)): demonstrated CXCR4 receptor occupancy
CXCR4 receptor occupancy (CXCR4 receptor; low BL-8040 dose levels (0.5, 0.75 and 1 mg/kg)): insignificant changes in receptor occupancy
1-year survival rate [1, 4]: 37.2%
2-years survival rate [1, 4]: 20%
3-years survival rate [1, 4]: 16%
median overall survival (mOS) ([1]; all patients at all BL-8040 dose levels (N=42), with HiDAC): 9.1 months
composite CR rate (CR and CRi) ([1]; expansion group that received 1.5 mg/kg BL-8040 (9/23), with HiDAC): 39%
composite CR rate (CR and CRi) ([1]; refractory patients (9/19), with HiDAC): 47%
composite CR rate (CR and CRi) ([1]; relapsed patients (3/23), with HiDAC): 13%
1-year survival rate [1, 5]: 66.7%
2-years survival rate [1, 5]: 44.4%
3-years survival rate [1, 5]: 44.4%
median overall survival (mOS) [1, 5]: 21.8 months
EFS at 1 year [1, 6]: 55.6%
EFS at 2 years [1, 6]: 22.2%
EFS at 3 years [1, 6]: 22.2%
median duration of response (mDOR) [1, 6]: 17.4 months
1-year survival rate [1, 7]: 38.1%
2-year survival rate [1, 7]: 23.8%
3-year survival rate [1, 7]: 23.8%
median overall survival (mOS) [1, 7]: 10.7 months
cytotoxicity toward malignant cells [2]: CXCR4-dependent preferential cytotoxicity
